The test system of data set [1] is collagen-induced arthritis Dba1 mouse model. Nature of the data set: Established collagen induced arthritis model (clinical score, histopathology, body weight). The format is in vivo. The procedure: Established Collagen Induced Arthritis Model: Experiments were carried out at Bolder Biopath, Boulder, Colo. All experiments were carried out in compliance with regulations of the Institutional Animal Care and Use Committee and were conducted in accordance with principles and procedures dictated by the highest standards of humane animal care. […] On study days 25-27, onset of arthritis occurred, and mice were randomized into treatment groups (10/treatment group, 4/group for normal). […] Randomization into each group was done after swelling was obviously established in at least one paw, and attempts were made to assure approximately equal mean scores across the groups at the time of enrollment. […] Treatment continued daily (QD at 24 h intervals) through arthritis day 14.

Data set [2] deals with T1, Btk (Homo sapiens, UniProt Q06187). Nature of the data set: Btk target site occupancy ELISA, human primary naïve B cells. The format is cell-based. The note with it: 10 nM. As for the experimental part:
(§1) Btk Target Site Occupancy ELISA: An ELISA method for the detection of free uninhibited Btk in mouse, rat, dog, monkey, and human lysates was developed at Celgene Avilomics Research and a validation of this method in human B cell lysate was performed by a CLIA Certified laboratory (Cambridge Biomedical Laboratories, Boston, Mass.) The parameters that were assessed included: accuracy, linearity, dilution, precision (intra and inter-assay), stability, reference range, freeze-thaw cycles, reportable range, specificity, sensitivity, and carryover. […] Standards and samples were transferred to a streptavidin-coated 96-well ELISA plate and mixed while shaking for 1 h at room temperature. […] After wash, goat α-mouse-HRP (1:5000 dilution in PBS+0.05% Tween-20+0.5% BSA) was added and incubated for 1 h at room temperature. The ELISA was developed with addition of tetramethyl benzidine (TMB) followed by Stop Solution and read at OD 450 nm.

For data set [3], the target named is T1, Btk. The data set can be described thus: Btk target site occupancy ELISA, Ramos cells. It is filed as cell-based. The settings on record: one hour, read-out: EC90 of Btk occupancy (concentration required for 90% occupancy). The procedure: as §1
A general note: ELISA stands for enzyme-linked immunosorbent assay.

Data set [4] is described as follows: Plasma level of compound in mice of the Btk resynthesis experiment. It is filed as in vivo, mouse. The note with it: single oral 50 mg/kg, n=6. The procedure: Btk Protein Resynthesis in Mice. […] At 4, 8, 16, 24, 48, 72, and 96 hours after treatment, spleens and serum were harvested (n=6 mice/timepoint). Spleens were homogenized and assayed on the covalent probe ELISA for Btk target site occupancy and compound concentration in serum was measured.

Data set [5] concerns naïve human B-cells. The data set can be described thus: B lymphocyte proliferation (3H-thymidine incorporation). The format is cell-based. The note with it: B-cell; α-human IgM stimulated. As for the experimental part:
B Lymphocyte Proliferation (^3H-Thymidine Incorporation): A suspension of resting purified naïve human B-cells isolated by negative selection (MACS reagent 130-091-150) in RPMI was prepared at 0.4-0.5×10^6 cells per mL. […] Experiments were performed in triplicate.

Data set [6] concerns PGPS 10S-induced arthritis in rats. Nature of the data set: PGPS 10S-induced model of chronic arthritis. It is filed as in vivo, rat. As for the experimental part: PGPS 10S-Induced Model of Chronic Arthritis. Rats were injected intraperitoneal with […] of animal body weight, to induce arthritis. Left and right hind limb lateral ankle widths of each rat were measured three times each prior to PG-PS 10S administration and on day 5. The first inflammatory response peak for both right and left ankles of PG-PS rats was reached on day 4. Rats were assigned to one of five treatment groups. […] Another group was treated with 0.3 mg/kg QD dexamethasone on the 3rd day post first peak (day 7) through day 22.

For data set [7], the target named is T1, Btk. Nature of the data set: Immunoblot of Btk kinase activity in human primary naïve B cells. It is filed as cell-based. The settings on record: 10 nM. The procedure:
(§2) Following incubation, cells were centrifuged and resuspended in 100 μL of serum-free RPMI and BCR was stimulated with addition of 5 μg/mL α-human IgM. […] Membranes were scanned on a LiCor Odyssey Scanner using infrared fluorescence detection.
(In general: In western blotting, separated proteins are transferred to a membrane and probed.)

Data set [8] has as its target T1, Btk. The data set can be described thus: Immunoblot of Btk signaling in α-IgM stimulated Ramos cells. It is filed as cell-based. As for the experimental part:
as §2

Data set [9] relates to semi-established CIA Dba1 mice. The data set can be described thus: Semi-established collagen induced arthritis (CIA) model. It is filed as in vivo, mouse. The settings on record: for disease incidence: study day 33. The procedure: Semi-Established Collagen Induced Arthritis (CIA) Arthritis Model. Experiments were carried out at Bolder Biopath, Boulder, Colo. All experiments were carried out in compliance with regulations of the Institutional Animal Care and Use Committee and were conducted in accordance with principles and procedures dictated by the highest standards of humane animal care. Dba1 mice were injected at the base of the tail with 150 μL of Freund's Complete Adjuvant (Sigma) containing bovine type II collagen (Elastin Products, Owensville, Mo.) (2 mg/ml) on day 0 and again on day 21. Mice were randomized into treatment groups on study day 21, and treatment was initiated. Treatment continued daily (3 mg/kg, 10 mg/kg or 30 mg/kg QD at 24 hour intervals) through day 33, and mice were terminated on day 33 (animals 1-6) or day 34 (animals 7-12). Onset of arthritis occurred between study days 21 and 34. Clinical scores were assessed for each of the paws on study days 21-34 using the following scoring system: 0=normal, 1=one hind or fore paw joint affected or minimal diffuse erythema and swelling, 2=two hind or fore paw joints affected or mild diffuse erythema and swelling, 3=three hind or fore paw joints affected or moderate diffuse erythema and swelling, 4=marked diffuse erythema and swelling or =four digit joints affected, 5=severe diffuse erythema and severe swelling entire paw, unable to flex digits. Spleens and plasma were harvested at necropsy (day 33 for animals 1-6 and day 34 for animals 7-12) and paws were removed and fixed in formalin for histopathological analysis.

For data set [10], the target named is T2, Btk (Mus musculus, UniProt P35991).
T2 construct: from tissue; host or cells: mouse spleen
The data set can be described thus: Btk protein resynthesis in mice (spleen covalent probe ELISA). The format is in vivo. The procedure: Spleen Homogenization: Spleens were harvested from mice, frozen immediately in liquid nitrogen and stored at −80° C. To generate spleen lysates, each spleen was sliced in half and lysed using a Precellys 24 Bead Homogenizer in 500 μL of BioRad Bio-Plex Lysis Buffer plus protease inhibitors. Supernatant was transferred to a fresh microfuge tube and stored frozen at −80° C. until analysis.
as §1
Btk Protein Resynthesis in Mice. […] Spleens were homogenized and assayed on the covalent probe ELISA for Btk target site occupancy and compound concentration in serum was measured.

Data set [11] concerns the target Lyn (Homo sapiens, UniProt P07948). The data set can be described thus: Biochemical kinase assay, Lyn (probe selectivity). The note with it: read-out: IC50app Lyn.
In data set [12] the target is T1, Btk. Nature of the data set: Btk biochemical kinase assay. The settings on record: read-out: IC50apparent, Btk kinase activity.
Data set [13] concerns the target EGFR (Homo sapiens, UniProt P00533). The data set can be described thus: Biochemical kinase assay, EGFR (probe selectivity). The note with it: read-out: IC50app EGFR.
The target of data set [14] is Syk (Homo sapiens, UniProt P43405). Nature of the data set: Biochemical kinase assay, Syk (probe selectivity). The settings on record: read-out: IC50app Syk.
Data set [15] has as its system IL-6. The data set can be described thus: Inflammatory chemokine and cytokine analysis in CIA mice, IL-6. The format is in vivo, mouse. The note with it: dexamethasone group. From the text:
(§3) Inflammatory Chemokine and Cytokine Analysis: At the termination of the CIA study, mice were sacrificed and blood was harvested via cardiac punch using EDTA as an anticoagulant. […] Levels of various mouse cytokines in plasma were quantified using Bioplex® Suspension Array System according to manufacturer's instruction (BioRad, mTNFa (171-G5023M), mIL-6 (171-G5007M), mKC (171-G5018M), mIFNg (171-G5017M), mIL-17 (Z60-00006Z2), mIL-1β (171-G5002M), mMCP-1 (171-G5019M).

The subject of data set [16] is TNF-a. The data set can be described thus: Inflammatory chemokine and cytokine analysis in CIA mice, TNF-a. It is filed as in vivo, mouse. The settings on record: dexamethasone group. The procedure: Inflammatory Chemokine and Cytokine Analysis: At the termination of the CIA study, mice were sacrificed and blood was harvested via cardiac punch using EDTA as an anticoagulant. Following centrifugation, serum was diluted 1:4 with a mouse serum diluents kit (BioRad cat#171-305004). Levels of various mouse cytokines in plasma were quantified using Bioplex® Suspension Array System according to manufacturer's instruction (BioRad, mTNFa (171-G5023M), mIL-6 (171-G5007M), mKC (171-G5018M), mIFNg (171-G5017M), mIL-17 (Z60-00006Z2), mIL-1β (171-G5002M), mMCP-1 (171-G5019M).

The subject of data set [17] is KC. Nature of the data set: Inflammatory chemokine and cytokine analysis in CIA mice, KC. The format is in vivo, mouse. The note with it: dexamethasone group.
Text: as §3

Entries after “also recorded” stand apart in the source; their conditions may differ. Marks after values point to notes of the source that are not given here.

A word on the EC50: it is the midpoint of the concentration-response curve. As a reminder, the inhibition is the share of the control response that was lost under treatment. Low readings indicate a weak effect, high ones a strong effect.

T1 sequence (Q06187 whole entry): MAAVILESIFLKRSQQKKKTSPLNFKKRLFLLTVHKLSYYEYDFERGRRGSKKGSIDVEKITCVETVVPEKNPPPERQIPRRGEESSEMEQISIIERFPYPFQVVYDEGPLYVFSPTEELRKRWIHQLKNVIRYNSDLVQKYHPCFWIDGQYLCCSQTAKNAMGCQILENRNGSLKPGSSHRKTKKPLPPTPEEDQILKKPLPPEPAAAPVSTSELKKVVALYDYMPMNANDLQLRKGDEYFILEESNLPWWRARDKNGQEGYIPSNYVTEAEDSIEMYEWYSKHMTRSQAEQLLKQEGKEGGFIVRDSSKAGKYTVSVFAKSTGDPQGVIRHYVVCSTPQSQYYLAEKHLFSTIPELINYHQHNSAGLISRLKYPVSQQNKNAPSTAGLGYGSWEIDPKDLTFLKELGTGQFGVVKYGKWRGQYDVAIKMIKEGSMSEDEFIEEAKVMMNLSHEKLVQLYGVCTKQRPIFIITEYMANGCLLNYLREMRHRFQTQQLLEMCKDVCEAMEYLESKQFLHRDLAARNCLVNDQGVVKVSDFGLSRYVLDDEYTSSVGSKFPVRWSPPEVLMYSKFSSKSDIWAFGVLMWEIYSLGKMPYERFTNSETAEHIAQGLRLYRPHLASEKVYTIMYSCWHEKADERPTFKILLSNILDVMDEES
T2 sequence (P35991 whole entry): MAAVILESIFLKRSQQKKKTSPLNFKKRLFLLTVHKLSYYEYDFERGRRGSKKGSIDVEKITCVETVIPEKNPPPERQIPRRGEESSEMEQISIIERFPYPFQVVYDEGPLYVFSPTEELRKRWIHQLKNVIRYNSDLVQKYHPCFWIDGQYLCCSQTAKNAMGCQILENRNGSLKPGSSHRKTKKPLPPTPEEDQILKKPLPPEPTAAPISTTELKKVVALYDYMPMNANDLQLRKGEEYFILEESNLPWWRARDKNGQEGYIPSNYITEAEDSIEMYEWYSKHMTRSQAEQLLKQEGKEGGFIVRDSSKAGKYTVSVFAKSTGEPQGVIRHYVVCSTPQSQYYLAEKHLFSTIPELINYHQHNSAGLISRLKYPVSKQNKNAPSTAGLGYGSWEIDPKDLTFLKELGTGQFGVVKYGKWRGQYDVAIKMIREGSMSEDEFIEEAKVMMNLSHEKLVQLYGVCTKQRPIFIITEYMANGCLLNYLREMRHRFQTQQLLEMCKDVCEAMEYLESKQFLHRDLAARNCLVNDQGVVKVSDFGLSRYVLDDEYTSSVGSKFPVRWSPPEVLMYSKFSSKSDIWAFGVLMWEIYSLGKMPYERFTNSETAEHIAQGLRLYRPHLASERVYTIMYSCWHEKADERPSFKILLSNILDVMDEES
EGFR, sequence (P00533 25-1210): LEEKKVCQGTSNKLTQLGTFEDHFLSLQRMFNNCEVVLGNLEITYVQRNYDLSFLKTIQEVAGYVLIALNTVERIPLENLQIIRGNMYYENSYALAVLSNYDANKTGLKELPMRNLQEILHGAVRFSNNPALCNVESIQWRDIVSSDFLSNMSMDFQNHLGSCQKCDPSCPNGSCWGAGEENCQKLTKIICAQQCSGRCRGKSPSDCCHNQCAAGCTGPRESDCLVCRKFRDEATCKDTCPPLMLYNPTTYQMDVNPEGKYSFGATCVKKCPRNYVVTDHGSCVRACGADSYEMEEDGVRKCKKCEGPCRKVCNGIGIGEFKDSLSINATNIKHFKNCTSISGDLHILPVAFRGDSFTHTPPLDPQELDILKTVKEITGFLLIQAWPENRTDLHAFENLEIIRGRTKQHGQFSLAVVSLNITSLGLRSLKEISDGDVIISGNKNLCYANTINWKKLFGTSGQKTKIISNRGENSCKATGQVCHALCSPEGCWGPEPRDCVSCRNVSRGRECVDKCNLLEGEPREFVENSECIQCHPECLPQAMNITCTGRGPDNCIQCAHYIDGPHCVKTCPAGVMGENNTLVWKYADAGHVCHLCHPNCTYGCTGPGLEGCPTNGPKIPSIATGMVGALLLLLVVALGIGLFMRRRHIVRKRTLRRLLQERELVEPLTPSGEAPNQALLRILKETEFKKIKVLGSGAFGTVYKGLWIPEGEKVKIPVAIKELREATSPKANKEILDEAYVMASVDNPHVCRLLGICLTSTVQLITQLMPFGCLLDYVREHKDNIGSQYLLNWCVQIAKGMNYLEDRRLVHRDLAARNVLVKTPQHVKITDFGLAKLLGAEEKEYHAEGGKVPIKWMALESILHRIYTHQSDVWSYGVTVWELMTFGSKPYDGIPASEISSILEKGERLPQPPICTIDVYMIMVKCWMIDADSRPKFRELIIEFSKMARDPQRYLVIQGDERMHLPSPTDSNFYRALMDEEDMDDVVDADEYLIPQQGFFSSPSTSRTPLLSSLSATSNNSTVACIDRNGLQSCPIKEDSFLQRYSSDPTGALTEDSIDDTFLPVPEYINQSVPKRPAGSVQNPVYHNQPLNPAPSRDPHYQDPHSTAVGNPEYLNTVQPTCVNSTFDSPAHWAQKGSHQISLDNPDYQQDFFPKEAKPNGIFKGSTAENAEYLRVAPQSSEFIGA
Lyn, sequence (P07948 whole entry): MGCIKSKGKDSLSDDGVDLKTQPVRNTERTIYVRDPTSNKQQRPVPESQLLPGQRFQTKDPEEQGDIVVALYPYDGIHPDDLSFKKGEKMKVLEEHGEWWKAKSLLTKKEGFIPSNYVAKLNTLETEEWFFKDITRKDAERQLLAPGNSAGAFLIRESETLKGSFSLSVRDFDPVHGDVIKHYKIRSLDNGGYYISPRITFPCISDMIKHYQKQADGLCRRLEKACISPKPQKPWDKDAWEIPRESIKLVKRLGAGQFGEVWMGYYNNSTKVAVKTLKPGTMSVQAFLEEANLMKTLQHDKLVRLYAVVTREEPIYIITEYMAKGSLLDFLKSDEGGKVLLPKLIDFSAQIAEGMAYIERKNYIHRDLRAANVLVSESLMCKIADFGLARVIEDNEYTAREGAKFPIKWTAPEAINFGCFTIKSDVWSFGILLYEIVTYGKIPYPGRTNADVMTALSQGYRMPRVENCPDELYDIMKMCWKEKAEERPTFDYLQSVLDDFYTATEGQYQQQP

With `C=CC(=O)Nc1cccc(Nc2nc(Nc3ccc(OCCOC)cc3)ncc2F)c1` [Compound 1, N-(3-(5-fluoro-2-(4-(2-methoxyethoxyl)phenylamino)pyrimidin-4-ylamino)phenyl)acrylamide], in [1] (10 mg/kg), the “inhibition of histopathologic signs of disease (six joints)” value is recorded as 87%. This compound also returned a receptor occupancy at 0.01 µM in [2] of 37%. For the same compound, the EC90 in data set [3] was 0.039 µM. Besides, in data set [4], the “compound concentration in plasma at the 8 hour timepoint” value is reported as “undetectable in 5/6 mice; also recorded: absent in 5 of 6 animals”. In addition, the EC50 in [5] came to 0.003 µM. Further, in data set [6] (10 mg/kg QD, 30 mg/kg QD and 30 mg/kg QOD), the “spleen enlargement vs vehicle” value is listed as “significantly prevented spleen enlargement”. In data set [6] (3, 10, 30 mg/kg QD, 30 mg/kg QOD), the “PGPS 10S-induced arthritis” value is listed as “inhibited PGPS 10S-induced arthritis in a dose-dependent manner”. Moreover, the “right and left lateral ankle width vs diseased group” value in [6] (PGPS rats, day 7 through day 22) is recorded as “significantly lower”. In [7], the inhibition at 0.01 µM was determined as 42%. The “concentration at which 90% of Btk activity was inhibited” value in [8] was 35 nM. Also, in [8] (anti-IgM), the “activation of the downstream kinase Erk” value is given as “potently inhibited”. In data set [8] (anti-IgM), the “phosphorylation of Btk on Tyr551” value is “no effect”. In addition, in data set [8] (anti-IgM), the “phosphorylation of the Btk substrate PLCγ2” value was “potently inhibited”. Further, the disease incidence stood at 50% in data set [9] (3 mg/kg QD), 17% in data set [9] (10 mg/kg QD) and 8% in data set [9] (30 mg/kg QD). Also, the “body weight loss associated with severity of disease” value in data set [9] (all three dose levels) is recorded as “prevented the loss in body weight”. Further, the “persistence of action on Btk (occupancy) after circulating compound has disappeared” value in data set [10] (mice, single oral 50 mg/kg) was > 12 h. The “new Btk protein, % of pre-dose Btk protein levels” value was found to be 43% in data set [10] (mouse spleen, 24 hours after single oral 50 mg/kg) and 71% in [10] (mouse spleen, 48 hours after single oral 50 mg/kg). In data set [10] (mouse spleen, single oral 50 mg/kg), the “time for Btk protein to recover to 50% pre-dose levels” value lay in the range of 24 to 48 h.

`C=CC(=O)Nc1cccc(Nc2nc(Nc3cccc(OCCCNC(=O)CCCC(=O)NCCCOCCOCCOCCCNC(=O)CCCC[C@@H]4SC[C@@H]5NC(=O)N[C@@H]54)c3)ncc2C)c1` [Compound 2]: the IC50 in data set [11] was > 3.5 µM; in [12] it was 0.0005 µM; in [13], > 0.025 µM; in data set [14], > 1 µM.

Regarding `C[C@@H]1C[C@H]2[C@@H]3CCC4=CC(=O)C=C[C@]4(C)[C@@]3(F)[C@@H](O)C[C@]2(C)[C@@]1(O)C(=O)CO` [dexamethasone, reference compound], in data set [1] (dexamethasone positive control (0.2 mg/kg)), the “inhibition of histopathologic signs of disease (six joints)” value was 82%. In addition, in data set [15], the IL-6 mean is 9.8* pg/mL. Further, the TNF-a mean in data set [16] is on record as 131.0 pg/mL. This compound also displayed a KC mean in data set [17] of 52.9 pg/mL. Besides, in [9] (dexamethasone group), the disease incidence stood at 0%.

The values are drawn from patent US20150216865A1, “METHODS OF TREATING A BRUTON'S TYROSINE KINASE DISEASE OR DISORDER” (Celgene Avilomics Research, Inc., priority 2012, published 2015).
